{"source": "patent US20230225987A1", "about": "“TOPICAL PHARMACEUTICAL COMPOSITIONS” (Dermavant Sciences GmbH, priority 2020, published 2023)", "key": {"[1]": {"assay": "Drug/excipient compatibility, 2 weeks at 40° C.", "type": "physicochemical", "settings": "2 weeks in most excipients at 40° C., with the exception of MCTs and DMI", "procedure": "(§1) Pre-formulation experiments were performed to understand the solubility and stability of the drug in excipients. In relation to drug/excipient compatibility, DMVT-505 was stable for 2 weeks (peak purity>98%) in most excipients at 40° C., with the exception of MCTs and DMI, which may be due to oxidation. Based on the pre-formulation data, aqueous-based solvent systems were designed for WS3. Further formulations were prepared combining suitable phases developed during all the workstreams to obtain formulations to limit the suspected drug partitioning between the aqueous and oil phases (WS2/3/4).\nas §1, with “oil-based” for “aqueous-based”, “WS2. Formulations based on these solvent systems, along with formulations with alternative emulsifiers (WS4) were developed.” for “WS3.”"}, "[2]": {"tested_on": "AhR target gene, cyp1a1", "settings": "primary human keratinocytes, human or rodent leukocytes"}, "[3]": {"settings": "Gao et al., Journal of Polymer Research 2011; cited from earlier work"}, "[4]": {"assay": "Pre-formulation solubility of DMVT-505 in excipients and solvent systems", "type": "physicochemical", "procedure": "as §1\nExperiments conducted on the stability of DMVT-505 in individual excipients also allowed for the identification of suitable alternative oil and aqueous phase excipients, and this information was used during the formulation development as the basis of solvent system design.\nFor WS3, aqueous phases were designed and DMVT-505 solubility in such systems was determined, ahead of formulation development where formulations were sequentially developed, tested and optimized using accelerated physical stability data generated primarily via the LUMiSizer platform. […] Additionally, combined aspects of each workstream (WS2/3/4) were developed with optimal physical stability and to limit the partitioning of the drug between the oil and aqueous phases.\nFor WS2, oil phase solvent systems were designed and DMVT-505 solubility in such systems was determined, ahead of formulation development where formulations were sequentially developed, tested and optimized using accelerated physical stability data generated primarily via the LUMiSizer platform. […] A number of emulsifiers and surfactant systems (WS4) were screened in order to achieve a formulation which was, theoretically, as stable as CR01. To do this, WS4 formulations were rationally designed, prepared and tested in a similar fashion to the previous workstreams. Additionally, combined aspects of each workstream (WS2/3/4) were developed with optimal physical stability and to limit the partitioning of the drug between the oil and aqueous phases."}, "[5]": {"assay": "28-day twice daily topical administration: toxicokinetics, skin concentrations, dermal irritancy and toxicity (Example 7)", "design": "species or system Gottingen minipigs", "settings": "minipig, in vivo", "procedure": "Following dose application on each dosing day, the dose sites were semi-occluded for approximately 20±1 hours from the first dose and then gently washed before the next dose was applied."}, "[6]": {"assay": "Nonclinical study, subcutaneous 3 mg/kg/day, 13 weeks (NOAEL)", "type": "in vivo", "settings": "Rat"}, "[7]": {"tested_on": "AhR pathway in intestinal human colon adenocarcinoma"}}}
{"compound": "CC(C)c1c(O)cc(/C=C/c2ccccc2)cc1O", "note": "[3,5-Dihydroxy-4-isopropyl-trans-stilbene]", "values": [{"measurement": "peak purity", "setting": "[1]", "value": "> 98", "unit": "%"}, {"measurement": "expression of the AhR target gene cyp1a1", "setting": "[2]", "value": "induce the expression"}, {"measurement": "sensitivity to oxidation and photo degradation", "setting": "[3]", "value": "sensitive to oxidation and photo degradation"}, {"measurement": "solubility in diisopropyl adipate", "setting": "[4]", "value": "good solubilizer"}, {"measurement": "solubility in mineral oil", "setting": "[4]", "value": "non-solvent"}, {"measurement": "solubility in water", "setting": "[4]", "value": "not soluble in water"}, {"measurement": "solubility", "setting": "[4]; in fixed oils, fatty alcohols, glycols and volatile solvent", "value": "> 7", "unit": "% w/w"}, {"measurement": "dermal irritation at the dose site", "setting": "[5]", "value": "no test article-related dermal irritation"}, {"measurement": "systemic toxicity", "setting": "[5]", "value": "no systemic toxicity"}, {"measurement": "AUC NOAEL", "setting": "[6]", "value": 99, "unit": "ng·h/mL"}, {"measurement": "AhR pathway activity", "setting": "[7]", "value": "activator"}]}
